Data taken from US10336792B2, “Antimicrobial peptide dendrimers” (priority 2014, dated 2019).
Values after ≈ are worked out from the molar mass of the structure shown. Positions of bridges follow the written chain, without caps; N, C: chain ends. Non-standard residues stand in square brackets, D forms with d. Residues, ends and D or L forms follow the SMILES beside them. Groups on a side chain read outwards from the residue. Chains are numbered I, II in the order given. *: point of attachment. Decanoyl = CCCCCCCCCC(=O)*; Orn = NCCC[C@H](N)C(=O)O; Dab = NCC[C@H](N)C(=O)O

Key:
[1] = tested on: P. aeruginosa PA01 (WT); assay type: cell-based, Pseudomonas aeruginosa; details: WT
Procedure: (§1) Antimicrobial activity was assayed against P. aeruginosa PA01 (WT), P. aeruginosa PT1482 (A-), PT1485 (A-B-), PT1149 (A-B-C-algC), PT331 (Z61) (LPS mutants), P. aeruginosa PEJ2.6, PEJ9.1, ZEM1.A, ZEM9.A (clinical isolates from Université de Genève/Centre Médical Universitaire), Burkholderia cenocepacia (B. ceno), Staphylococcus aureus (S. aureus, MRSA strain) and Acinetobacter baumannii (A. baum) (clinical isolates from Université de Genève/Centre Médical Universitaire). To determine the minimal inhibitory concentration (MIC), microdilution broth method was used. A colony of bacteria was grown in MH-medium overnight at 37° C. The samples were prepared as stock solutions of 8 mg mL^−1 in H2O, diluted to the beginning concentration of 32, 64, 128 or 256 μg/mL in 300 μL MH-medium, added to the first well of 96-well microtiterplate (TPP, untreated) and diluted serially by ½. The concentration of the bacteria was quantified by measuring absorbance at 600 nm and diluted to OD600=0.022 in MH-medium. The sample solutions (150 μL) were mixed with 4 μL diluted bacterial suspension with a final inoculation of about of 5×10^5 CFU. The plates were incubated at 37° C. until satisfactory growth (˜18 h). For each test, two columns of the plate were kept for sterility control (SC, broth only) and growth control (GC, broth with bacterial inoculums, no antibiotics). The minimal inhibitory concentration (MIC) was defined as the lowest concentration of the antimicrobial substance (peptide dendrimer) that inhibited visible growth of the tested bacteria with the unaided eye. For microbiological study Polymyxin was used as references.

[2] = tested on: PAO1; assay type: cell-based, Pseudomonas aeruginosa; details: PAO1
Procedure: as §1

[3] = tested on: P. aeruginosa PEJ2.6, PEJ9.1, ZEM1.A, ZEM9.A (clinical isolates); assay type: cell-based, Pseudomonas aeruginosa; details: PEJ2.6, PEJ9.1, ZEM1.A, ZEM9.A (clinical isolates)
Procedure: as §1
(§2) Ten of the most promising compounds (FIG. 5) were tested for their efficiency against four clinical isolates of P. aeruginosa (ZEM9.A, ZEM1.A, PEJ2.6, PEJ9.1), one S. aureus (COL, MRSA reference strain) and one A. baumannii strain. For the experiments in Genève the peptide dendrimers and reference compounds (polymyxin) were dissolved in PBS and the assay was carried out in Müller-Hinton (MH) broth with a two-fold dilution.

[4] = tested on: Staphylococcus aureus (COL, MRSA reference strain); assay type: cell-based; details: COL, reference strain
Procedure: as §1, §2

[5] = tested on: Acinetobacter baumannii; assay type: cell-based
Procedure: as §1, §2

[6] = tested on: human red blood cells (hRBC); experiment: Haemolysis assay, minimal haemolytic concentration (MHC); assay type: cell-based; details: hRBC in PBS pH 7.4, 4 h, room temperature
Procedure: To determine the minimal haemolytic concentration (MHC) stock solutions of 8 mg/mL of the peptide dendrimers in H2O were prepared and 50 μL were diluted serially by ½ in 50 μL PBS (pH 7.4) in 96-well plate (Cornstar or Nunc, polystyrene, untreated). Human red blood cells (hRBC) were obtained by centrifuging 1.5 mL of whole blood from friendly donors at 3000 rpm for 15 minutes. Plasma was discarded and the pellet was re-suspended in a 15 mL falcon tube up to 5 mL of PBS. The washing was repeated three times and the remaining pellet was re-suspended in 10 mL of PBS at a final hRBC concentration of 5%. The hRBC suspension (50 μL) was added to each well and the plate was incubated at room temperature for 4 hours. Minimal haemolytic concentration (MHC) end points were determined by visual inspection of the wells after the incubation period. Controls on each plate included a blank medium control (50 μl PBS+50 μl of hRBC suspension) and a haemolytic activity control (mQ-deionized water 50 μL+50 μL hRBC suspension).
MIC (minimal inhibitory concentration) and MHC (minimal haemolytic concentration, determined on human red blood cells (hRBC)) values are given in μg/mL. When no detectable haemolytic activity was observed, the last measured concentration was used for calculation of the therapeutic index. TI (therapeutic index)=MHC (μg/ml)/geometric mean of MIC (μg/ml). Larger values indicate greater antimicrobial specificity.

[7] = tested on: Bacillus subtilis (strain BR151); assay type: cell-based; details: LB medium
How it was run: (§3)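 Broth microdilution MIC in LB; overnight cultures diluted to OD600 0.001 and mixed 1:1 with ⅔-serially diluted samples (stock 1 mg mL^−1 in H2O), 37° C for 18-24 h. MTT (0.1%) added; MIC read by eye as lowest concentration inhibiting visible growth (yellow).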

[8] = tested on: Pseudomonas aeruginosa (strain PA01); experiment: microbe, parasite or virus in culture; assay type: cell-based; details: LB medium, serial 2/3 dilution, 37 °C, 18-24 h
How it was run: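 Broth microdilution MIC against P. aeruginosa PAO1 in LB: peptides serially diluted by ⅔, bacteria added at OD600 0.001 and incubated 18–24 h at 37 °C. MTT added; MIC is the lowest concentration preventing visible growth.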

[9] = tested on: Escherichia coli (strain DH5α); assay type: cell-based; details: LB medium
How it was run: as §3

CCCCCCCCCC(=O)NCCCC[C@H](NC(=O)[C@H](CC(C)C)NC(=O)[C@H](CCCCN)NC(=O)[C@H](CCCCNC(=O)[C@H](CC(C)C)NC(=O)[C@H](CCCCN)NC(=O)[C@H](CCCCNC(=O)[C@H](CC(C)C)NC(=O)[C@@H](N)CCCCN)NC(=O)[C@H](CC(C)C)NC(=O)[C@@H](N)CCCCN)NC(=O)[C@H](CC(C)C)NC(=O)[C@H](CCCCN)NC(=O)[C@H](CCCCNC(=O)[C@H](CC(C)C)NC(=O)[C@@H](N)CCCCN)NC(=O)[C@H](CC(C)C)NC(=O)[C@@H](N)CCCCN)C(N)=O [Compound G2KLC10, (KL)4(KKL)2(KKL-CO(CH2)8CH3)] (I: H-KLK([Leu-Lys])KLKKLK(Decanoyl)-NH2 / II: H-KLK([Leu-Lys])KL; amide I:6-II:C; N-terminus assumed)
MIC (MH) [1]: 4 µg/mL (≈ 1.69 µM)
MIC PAO1 [1]: 8 µg/mL (≈ 3.37 µM)
MIC (MH + 30% human serum) [2]: 8 to 16 µg/mL
MIC P. aeruginosa MDR clinical isolate PEJ2.6 [3]: 8 µg/mL (≈ 3.37 µM)
MIC P. aeruginosa MDR clinical isolate PEJ9.1 [3]: 64 µg/mL (≈ 27 µM)
MIC P. aeruginosa MDR clinical isolate ZEM1A [3]: 4 µg/mL (≈ 1.69 µM)
MIC S. aureus COL [4]: 64 µg/mL (≈ 27 µM)
MIC A. baumannii ATCC19606 [5]: 16 µg/mL (≈ 6.74 µM)

CC(C)C[C@H](NC(=O)[C@H](CCCCN)NC(=O)[C@H](CCCCNC(=O)[C@H](CC(C)C)NC(=O)[C@H](CCCCN)NC(=O)[C@H](CCCCNC(=O)[C@H](CC(C)C)NC(=O)[C@H](CCCCN)NC(=O)[C@@H](N)CCCCN)NC(=O)[C@H](CC(C)C)NC(=O)[C@H](CCCCN)NC(=O)[C@@H](N)CCCCN)NC(=O)[C@H](CC(C)C)NC(=O)[C@H](CCCCN)NC(=O)[C@H](CCCCNC(=O)[C@H](CC(C)C)NC(=O)[C@H](CCCCN)NC(=O)[C@@H](N)CCCCN)NC(=O)[C@H](CC(C)C)NC(=O)[C@H](CCCCN)NC(=O)[C@@H](N)CCCCN)C(N)=O [MSt-119, (KKL)4(KKL)2(KKL)] (I: H-KKLK([Leu-Lys-Lys])KLKKL-NH2 / II: H-KKLK([Leu-Lys-Lys])KL; amide I:7-II:C)
MHC (minimal haemolytic concentration) [6]: 677 µg/mL
MIC B. subtilis BR151 [7]: 20 µg/mL (≈ 7.68 µM)
MIC P. aeruginosa PAO1 [8]: 3 µg/mL (≈ 1.15 µM)

CCCCCCCCCC(=O)NCCCC[C@H](NC(=O)[C@H](CC(C)C)NC(=O)[C@H](CCCCN)NC(=O)[C@H](CCCCNC(=O)[C@H](CC(C)C)NC(=O)[C@H](CCN)NC(=O)[C@H](CCCCNC(=O)[C@H](Cc1ccccc1)NC(=O)[C@@H](N)CCCN)NC(=O)[C@H](Cc1ccccc1)NC(=O)[C@@H](N)CCCN)NC(=O)[C@H](CC(C)C)NC(=O)[C@H](CCN)NC(=O)[C@H](CCCCNC(=O)[C@H](Cc1ccccc1)NC(=O)[C@@H](N)CCCN)NC(=O)[C@H](Cc1ccccc1)NC(=O)[C@@H](N)CCCN)C(N)=O [TNS-122, (OrnF)4(KDabL)2(KKLK-CO(CH2)8CH3] (I: H-[Orn]FK([Phe-Orn])[Dab]LKKLK(Decanoyl)-NH2 / II: H-[Orn]FK([Phe-Orn])[Dab]L; amide I:6-II:C; N-terminus assumed)
MIC (MH) [1]: 2 µg/mL (≈ 0.834 µM)
MIC PAO1 [1]: 4 (8) μg/mL
MIC (MH + 30% human serum) [2]: 8 µg/mL
MIC P. aeruginosa MDR clinical isolate PEJ2.6 [3]: 4 µg/mL (≈ 1.67 µM)
MIC P. aeruginosa MDR clinical isolate PEJ9.1 [3]: 32 µg/mL (≈ 13.3 µM)
MIC P. aeruginosa MDR clinical isolate ZEM1A [3]: 4 µg/mL (≈ 1.67 µM)
MIC P. aeruginosa MDR clinical isolate ZEM9A [3]: 8 µg/mL (≈ 3.34 µM)
MIC S. aureus COL [4]: 8 to 16 µg/mL
MIC A. baumannii ATCC19606 [5]: 8 to 16 µg/mL

CCCCCCCCCC(=O)NCCCC[C@H](NC(=O)[C@H](CC(C)C)NC(=O)[C@H](CCCCN)NC(=O)[C@H](CCCCNC(=O)[C@H](Cc1ccccc1)NC(=O)[C@H](CCN)NC(=O)[C@H](CCCCNC(=O)[C@H](CC(C)C)NC(=O)[C@@H](N)CCCN)NC(=O)[C@H](CC(C)C)NC(=O)[C@@H](N)CCCN)NC(=O)[C@H](Cc1ccccc1)NC(=O)[C@H](CCN)NC(=O)[C@H](CCCCNC(=O)[C@H](CC(C)C)NC(=O)[C@@H](N)CCCN)NC(=O)[C@H](CC(C)C)NC(=O)[C@@H](N)CCCN)C(N)=O [TNS-123, (OrnL)4(KDabF)2(KKLK-CO(CH2)8CH3)] (I: H-[Orn]LK([Leu-Orn])[Dab]FKKLK(Decanoyl)-NH2 / II: H-[Orn]LK([Leu-Orn])[Dab]F; amide I:6-II:C; N-terminus assumed)
MIC (MH) [1]: 2 µg/mL (≈ 0.859 µM)
MIC PAO1 [1]: 4 to 8 µg/mL
MIC (MH + 30% human serum) [2]: 8 to 16 µg/mL
MIC P. aeruginosa MDR clinical isolate PEJ2.6 [3]: 16 µg/mL (≈ 6.87 µM)
MIC P. aeruginosa MDR clinical isolate PEJ9.1 [3]: >64 µg/mL
MIC P. aeruginosa MDR clinical isolate ZEM1A [3]: 4 µg/mL (≈ 1.72 µM)
MIC P. aeruginosa MDR clinical isolate ZEM9A [3]: 8 µg/mL (≈ 3.43 µM)
MIC S. aureus COL [4]: 32 to 64 µg/mL
MIC A. baumannii ATCC19606 [5]: 32 µg/mL (≈ 13.7 µM)

CCCCCCCCCC(=O)NCCCC[C@H](NC(=O)[C@H](CC(C)C)NC(=O)[C@H](CCCCN)NC(=O)[C@H](CCCCNC(=O)[C@H](CC(C)C)NC(=O)[C@H](CCN)NC(=O)[C@H](CCCCNC(=O)[C@H](Cc1ccccc1)NC(=O)[C@@H](N)CCCNC(=N)N)NC(=O)[C@H](Cc1ccccc1)NC(=O)[C@@H](N)CCCNC(=N)N)NC(=O)[C@H](CC(C)C)NC(=O)[C@H](CCN)NC(=O)[C@H](CCCCNC(=O)[C@H](Cc1ccccc1)NC(=O)[C@@H](N)CCCNC(=N)N)NC(=O)[C@H](Cc1ccccc1)NC(=O)[C@@H](N)CCCNC(=N)N)C(N)=O [TNS-124, (RF)4(KDabL)2(KKLK-CO(CH2)8CH3)] (I: H-RFK([Phe-Arg])[Dab]LKKLK(Decanoyl)-NH2 / II: H-RFK([Phe-Arg])[Dab]L; amide I:6-II:C; N-terminus assumed)
MIC (MH) [1]: 4 to 8 µg/mL
MIC PAO1 [1]: 8 µg/mL (≈ 3.12 µM)
MIC (MH + 30% human serum) [2]: 16 to 32 µg/mL
MIC P. aeruginosa MDR clinical isolate PEJ2.6 [3]: 8 µg/mL (≈ 3.12 µM)
MIC P. aeruginosa MDR clinical isolate PEJ9.1 [3]: 32 µg/mL (≈ 12.5 µM)
MIC P. aeruginosa MDR clinical isolate ZEM1A [3]: 4 to 8 µg/mL
MIC P. aeruginosa MDR clinical isolate ZEM9A [3]: 16 to 32 µg/mL
MIC S. aureus COL [4]: 8 µg/mL (≈ 3.12 µM)
MIC A. baumannii ATCC19606 [5]: 8 to 16 µg/mL

(DabL)8(KDabW)4(KDabW)2(KDabL) [MSt-204]
MHC (minimal haemolytic concentration) [6]: 146 µg/mL
MIC E. coli DH5α [9]: 2 µg/mL
MIC B. subtilis BR151 [7]: 2 µg/mL
MIC P. aeruginosa PAO1 [8]: 3 µg/mL

(KLL)4(KKLL)2(KKLL) [MIS-02]
MHC (minimal haemolytic concentration) [6]: 15 µg/mL
MIC B. subtilis BR151 [7]: 1 µg/mL
MIC P. aeruginosa PAO1 [8]: 3 µg/mL

(LA)8(KLK)4(KLA)2(KKL) [MSt-120]
MHC (minimal haemolytic concentration) [6]: 584 µg/mL
MIC E. coli DH5α [9]: considerably less active
MIC P. aeruginosa PAO1 [8]: 14 µg/mL
